According to patent US20010053796A1, “Delta-aminolevulinic acid for prevention and treatment of infection microorganisms and parasite” (priority 2000, published 2001):

What was measured:
[1] = tested on: Edwardsiella tarda; assay: Prevention effect for artificial infection (abdominal injection of bacteria); assay type: in vivo, Bastardhalibut; details: for Mortality during Cultivation: dead of 20 fish
Method: The water temperature was maintained at 20° C. (±2° C. ) throughout the experiment.
As the same method of above Experiment 1, fishes of both control group and experiment group were prepared and artificially infected by direct abdominal injection of Edwardsiella tarda 10^5 CFU per 1 fish. Each experimental fish was moved to fish tanks for monitoring and monitored for mortality according to infection for 2 weeks and viability after 2 weeks.

[2] = tested on: Streptococcus sp.; assay: as above; assay type: in vivo, Sebastes schlegeli; details: for Mortality during Cultivation: dead of 20 fish
Method: The water temperature was maintained at 20° C. (±2° C. ) throughout the experiment. […]
Bastardhalibut and Sebastes schlegeli were infected by Streptococcus sp. by abdominal injection with the same method of fish breeding, δ-aminolevulinic acid treatment and artificial infection carried out in Experiment 1 and 2. Each experimental fish was moved to fish tanks for monitoring and monitored for mortality according to infection for 2 weeks. […] The treated group, with δ-aminolevulinic acid by tank administration method and oral administration method, has shown viability of higher than 65%.

Compound: NCC(=O)CCC(=O)O [δ-aminolevulinic acid]
- Viability ([1]; orally, 0.01 ppm in feed): 75%
- Mortality during Cultivation ([1]; orally, 0.01 ppm in feed): 5
- Viability ([1]; orally, 1.0 ppm in feed): 70%
- Mortality during Cultivation ([1]; orally, 1.0 ppm in feed): 6
- Viability ([1]; orally, 10 ppm in feed): 85%
- Mortality during Cultivation ([1]; orally, 10 ppm in feed): 3
- Viability ([1]; orally, 100 ppm in feed): 95%
- Mortality during Cultivation ([1]; orally, 100 ppm in feed): 1
- Viability ([1]; to fish tanks, 0.01 ppm): 65%
- Mortality during Cultivation ([1]; to fish tanks, 0.01 ppm): 7
- Viability ([1]; to fish tanks, 0.1 ppm): 75%
- Mortality during Cultivation ([1]; to fish tanks, 0.1 ppm): 5
- Viability ([1]; to fish tanks, 1.0 ppm): 85%
- Mortality during Cultivation ([1]; to fish tanks, 1.0 ppm): 3
- Viability ([1]; to fish tanks, 10 ppm): 90%
- Mortality during Cultivation ([1]; to fish tanks, 10 ppm): 2
- Viability ([2]; orally, 0.1 ppm in feed): 70%
- Mortality during Cultivation ([2]; orally, 0.1 ppm in feed): 6
- Viability ([2]; orally, 1.0 ppm in feed): 70%
- Mortality during Cultivation ([2]; orally, 1.0 ppm in feed): 6
- Viability ([2]; orally, 10 ppm in feed): 85%
- Mortality during Cultivation ([2]; orally, 10 ppm in feed): 3
- Viability ([2]; orally, 100 ppm in feed): 90%
- Mortality during Cultivation ([2]; orally, 100 ppm in feed): 2
- Viability ([2]; to fish tanks, 0.01 ppm): 60%
- Mortality during Cultivation ([2]; to fish tanks, 0.01 ppm): 8
- Viability ([2]; to fish tanks, 0.1 ppm): 65%
- Mortality during Cultivation ([2]; to fish tanks, 0.1 ppm): 7
- Viability ([2]; to fish tanks, 1.0 ppm): 85%
- Mortality during Cultivation ([2]; to fish tanks, 1.0 ppm): 3
- Viability ([2]; to fish tanks, 10 ppm): 80%
- Mortality during Cultivation ([2]; to fish tanks, 10 ppm): 4
